This note sets out measurements from patent US10174096B2, “Feline bitter taste receptors and methods” (Applied Food Biotechnology, Inc., priority 2013, dated 2019).

What all share (assay type): cell-based, feline
The test system of assay [1] is fTAS2R38. The experiment in a line: Fluo-4AM calcium assay, stable G[alpha]16-gustducin 44/TAS2R38 cell line. An excerpt: Fluo-4AM is a fluorescent indicator of intracellular calcium dynamics (change in concentration) and allows monitoring changes in the calcium concentration, particularly an increase in response to receptor activation occurring after agonist exposure.

Assay [2] deals with fTAS2R38. The experiment in a line: Fluo-4AM calcium assay, cells transiently expressing fTAS2R38. As for the experimental part: Cell lines that transiently express a desired TAS2R disclosed herein were generated by transfecting the appropriate expression vector, e.g., pcDNA3.1D-FLAGV5His-TAS2R38, constructed as described above in Ex. 2A into cells of a eukaryotic cell line (Life Technologies, Cat# R700-07).
(§1) On day 0, 60,000 cells per well were plated on poly lysine coated, black 96 well plates with clear bottoms (Costar). The following day the cells were transfected with 150 ng TAS2R38 expression vector, e.g., pcDNA3.1D-FLAGV5His (Invitrogen) along with 45 ng of Ga16 chimera containing the last 44 amino acids of rat gustducin (Gα16gust44) with 0.5 ul Lipofectamine 2000 (Invitrogen) per well. Cells were then incubated 22-44 hours at 37° C. 5% CO2.
The expression of fTAS2R38 was evaluated by testing for the presence of a functional response to a known hTAS2R38 ligand (e.g., PTC), determined via automated calcium imaging using a Fluo-4AM (Life Technologies Corporation) Calcium Assay. Fluo-4AM is a fluorescent indicator of intracellular calcium dynamics (change in concentration) and allows monitoring changes in the calcium concentration, particularly an increase in response to receptor activation occurring after agonist exposure.
(§2) Testing for a functional response of fTAS2R38 to the known hTAS2R38 ligands, PTC and PROP, and of fTAS2R43 to the known hTAS2R43 ligands, aloin, denatonium and saccharine), was determined via automated calcium imaging using the Fluo-4AM (Life Technologies Corporation) Calcium Assay.

Assay [3] concerns fTAS2R43. As to the kind of experiment: Fluo-4AM calcium assay, cells transiently expressing fTAS2R43. As for the experimental part: as §1
Generation of cell lines transiently expressing the other fTAS2Rs disclosed herein was analogous.
as §2

With `CCCc1cc(=O)[nH]c(=S)[nH]1` [PROP, 6-n-propylthiouracil], the “stimulation of stable fTAS2R38 cell line” value in assay [1] (30 μm PROP) was “not stimulated”. Further, the “stimulation of fTAS2R38” value in assay [2] (30 μM PROP, transiently transfected cells) is on record as “not stimulated”.
As for `NC(=S)Nc1ccccc1` [PTC, phenylthiocarbamide], in assay [1] (100 μM PTC), the stimulation over baseline worked out at 90%. Moreover, the activation over baseline in assay [2] (100 μM PTC, transiently transfected cells) was found to be 81%.
For the molecule `O=C1c2c(O)cccc2C([C@@H]2O[C@H](CO)[C@@H](O)[C@H](O)[C@H]2O)c2cc(CO)cc(O)c21` (stereo partly shown) [aloin], in assay [3] (300 μM aloin, transiently transfected cells), the activation over baseline worked out at 45%.
For the molecule `CC[N+](CC)(CC(=O)Nc1c(C)cccc1C)Cc1ccccc1` [denatonium], in assay [3] (1 mM denatonium, transiently transfected cells), the activation over baseline was 17%.
In the case of `CCCN(CCC)S(=O)(=O)c1ccc(C(=O)O)cc1` [probenecid, p-(dipropylsulfamoyl)benzoic acid], the “inhibition of the response to PTC” value in assay [2] (1 mM probenecid) was “inhibited”. For the same molecule, in assay [3] (1 mM probenecid), the “inhibition of the response to aloin” value is recorded as “inhibited” and the “inhibition of the response to denatonium” value is on record as “inhibited”.
`O=C1NS(=O)(=O)c2ccccc21` [saccharin]: the “stimulation of fTAS2R43” value in assay [3] (6.7 mM saccharin, transiently transfected cells) was “not stimulated”.
